{"source": "patent US20110195432A1", "about": "“METHODS FOR THE SELECTION OF THERAPEUTIC TREATMENTS FOR CANCER” (priority 2008, published 2011)", "key": {"[1]": {"test_system": "PSA", "assay": "Real-time PCR of AR target gene expression, LNCaP cells", "assay_type": "cell-based", "conditions": "increasing doses, vehicle set to 1", "from_the_text": "All samples were run in triplicate. The vehicle-treated sample was set to 1."}, "[2]": {"test_system": "PSA ARE", "conditions": "LNCaP cells; 20 μM sulforaphane, 24 hours; versus vehicle-treated cells", "protocol": "To determine whether AR protein depletion from its target genes' androgen response elements (AREs) was responsible for reduced target gene expression, chromatin immunoprecipitation (ChIP) was performed. Cells were cross-linked with formaldehyde and reactions were stopped with glycine. Crosslinked cells were re-suspended in RIPA with SigmaFast protease inhibitors tablets (Sigma, St. Louis, Mo.) and sonicated on ice using a Branson Digital Sonifer model 450 (Branson Ultrasonics Co., Danbury, Conn.). Sonicated cellular lysates were used for Matrix ChIP (Flanagin et al., Nucleic Acids Res 36: e17, 2008) Immunoprecipitations were performed without adding an antibody or with 500 ng of an anti-AR antibody. PCR reactions were amplified using a thermocycler (see supplementary methods). ChIP PCR primer sequences were as follows:\nPrimers were synthesized by IDT (Coralville, Iowa). ChIP PCR program consisted of: 95° C. for 5 minutes for 1 cycle; 95° C. for 30 seconds, 58° C.(TMPRSS2-ERG) or 60° C. (PSA) for 30 seconds, and 72° C. for 30 seconds for 35-40 cycles; 72° C. final extension for 5 minutes. […] Bands were imaged for densitometry using a Gel Doc XR UV transilluminator and Quantity One software (Bio-Rad, Hercules, Calif.)."}, "[3]": {"test_system": "HDAC6", "assay": "Western blot of HDAC6 protein levels, LNCaP cells", "assay_type": "cell-based"}, "[4]": {"test_system": "acetylated alpha-tubulin", "assay": "Western blot of acetylated alpha-tubulin, LNCaP cells", "assay_type": "cell-based", "protocol": "The vehicle sample was set to 1.\nLNCaP cells were transiently transfected with either a siRNA sequence complementary to the luciferase gene ([…]; SEQ ID NO: 8) or to HDAC6 ([…]; SEQ ID NO: 9) using DharmaFECT 3 transfection reagent for a final concentration of 100 nM (Dharmacon, Lafayette, Colo.). At 48, 72, and 96 hours post-transfection, cells were harvested. Levels of protein expression by Western blot were quantified."}, "[5]": {"molecular_target": "T1, recombinant HDAC6 (Homo sapiens, UniProt Q9UBN7)", "T1 sequence (Q9UBN7 1-1215)": "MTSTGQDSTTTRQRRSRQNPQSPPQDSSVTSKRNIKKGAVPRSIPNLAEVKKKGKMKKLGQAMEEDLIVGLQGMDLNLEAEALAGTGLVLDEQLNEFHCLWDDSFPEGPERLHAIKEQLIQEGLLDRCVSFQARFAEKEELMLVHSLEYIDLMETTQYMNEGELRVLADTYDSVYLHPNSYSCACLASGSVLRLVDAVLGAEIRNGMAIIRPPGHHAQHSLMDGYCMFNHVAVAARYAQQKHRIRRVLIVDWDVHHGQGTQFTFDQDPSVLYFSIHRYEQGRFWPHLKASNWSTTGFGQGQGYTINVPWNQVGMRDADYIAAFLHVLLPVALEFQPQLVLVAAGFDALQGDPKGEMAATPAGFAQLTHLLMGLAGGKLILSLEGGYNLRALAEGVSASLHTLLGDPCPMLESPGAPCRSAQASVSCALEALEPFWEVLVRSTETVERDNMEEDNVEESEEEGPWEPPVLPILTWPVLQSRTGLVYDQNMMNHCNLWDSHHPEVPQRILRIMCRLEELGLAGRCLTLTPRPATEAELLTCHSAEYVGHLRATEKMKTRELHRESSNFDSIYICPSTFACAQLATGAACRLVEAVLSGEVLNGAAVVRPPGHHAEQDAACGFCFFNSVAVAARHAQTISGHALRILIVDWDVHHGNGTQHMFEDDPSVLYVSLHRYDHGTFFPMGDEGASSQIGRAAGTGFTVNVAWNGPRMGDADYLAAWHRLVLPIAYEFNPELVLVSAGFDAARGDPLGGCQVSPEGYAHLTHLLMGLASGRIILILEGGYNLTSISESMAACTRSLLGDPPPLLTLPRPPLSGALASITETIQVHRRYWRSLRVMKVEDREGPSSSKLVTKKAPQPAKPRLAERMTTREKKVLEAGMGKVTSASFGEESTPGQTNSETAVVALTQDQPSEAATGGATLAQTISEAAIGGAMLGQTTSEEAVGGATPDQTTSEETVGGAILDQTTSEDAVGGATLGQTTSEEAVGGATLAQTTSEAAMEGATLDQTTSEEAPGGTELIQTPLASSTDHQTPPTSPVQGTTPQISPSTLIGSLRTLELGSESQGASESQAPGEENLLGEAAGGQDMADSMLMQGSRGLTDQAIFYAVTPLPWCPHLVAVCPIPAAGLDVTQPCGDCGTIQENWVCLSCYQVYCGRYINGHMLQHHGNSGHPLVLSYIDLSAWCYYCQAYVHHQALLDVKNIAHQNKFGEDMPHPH", "conditions": "cell-free; 7.5 or 15 μM sulforaphane, or 400 nM TSA; versus vehicle-treated HDAC6 control"}, "[6]": {"conditions": "FLAG-HDAC6 transfected LNCaP cells, sulforaphane-treated, versus empty-vector, sulforaphane-treated cells"}, "[7]": {"conditions": "empty-vector transfected LNCaP cells, 16-hour treatment with 15 nM sulforaphane versus vehicle"}}, "note": "“Also recorded” adds a separate entry of the source."}
{"smiles": "C[S+]([O-])CCCCN=C=S", "note": "(centres unmarked) [sulforaphane, 1-Isothiocyanato-4-methylsulfinylbutane]", "values": [{"measurement": "AR target gene expression (PSA)", "setting": "[1]", "value": "dose-dependent reduction"}, {"measurement": "enrichment of AR at the PSA ARE", "setting": "[2]", "value": "reduced enrichment"}, {"measurement": "HDAC6 protein levels at later time points", "setting": "[3]; 16 hours", "value": "reduced HDAC6 protein levels"}, {"measurement": "HDAC6 protein expression in HDAC6-over-expressing cells", "setting": "[3]; [6]", "value": "restored"}, {"measurement": "HDAC6 protein levels with concomitant proteasome inhibitor", "setting": "[3]; LNCaP cells, 16 hours, 20 μM sulforaphane with 20 μM MG132 versus sulforaphane-treated cells", "value": "restored HDAC6 protein levels"}, {"measurement": "levels of HDAC6 in input whole cell lysate", "setting": "[3]; LNCaP cells, early time point, 4 hours, versus vehicle", "value": "similar; also recorded: without changing its levels"}, {"measurement": "HDAC6 protein levels", "setting": "[3]; [7]", "value": "reduced"}, {"measurement": "alpha-tubulin acetylation in HDAC6-over-expressing cells", "setting": "[4]; [6]", "value": "blunted"}, {"measurement": "acetylated tubulin", "setting": "[4]; [7]", "value": "increased"}, {"measurement": "levels of acetylated tubulin in input whole cell lysate", "setting": "[4]; sulforaphane 20 μM, 4 hours, versus vehicle", "value": "increased levels of acetylated alpha-tubulin"}, {"measurement": "HDAC6 deacetylase activity on tubulin", "setting": "[5]", "value": "decreased HDAC6 deacetylase activity; also recorded: inhibited HDAC6 deacetylase activity"}]}
